From patent US12569500B2, “Combination comprising tricycle compound and use thereof in preparation of medicament for treating HBV” (FUJIAN AKEYLINK BIOTECHNOLOGY CO., LTD., priority 2020, dated 2026)
Structures can show the parent of a compound that is named as a salt.

Experiments:
Format in all cases: cell-based
HepG2.2.15 cells [1] = assay: CellTiter-Glo cytotoxicity of compound 1 / TDF combination
Method: 1.1 Day 1, HepG2.2.15 cells were seeded into a 96-well cell culture plate at a density of 40,000 cells/well, and then the cells were cultured overnight at 5% CO2 and 37° C.
1.2 Day 2, the compound 1 and TDF were combined with 7 different concentrations (selected about 8×, 4×, 2×, 1×, 0.5×, 0.25×, 0.125×EC50 concentration gradient) for orthogonal proportioning, and added to 96-well plate, each combination is 3 double plates, and the final concentration of DMSO is 0.5%.
1.3 Day 5, the cell supernatant was discarded, a fresh medium containing the compound was added, and the cells were cultured under 5% CO2, 37° C. for 3 days. On the 8th day, the supernatant from the cell plate treated with the compound was extracted according to the QIAamp 96 DNA Blood Kit (12) instruction.
MacSynegy software (Prichard et al., 1990) was used to process the HBV DNA copy number test data and analyze the effect parameters of compound 1 and TDF in combination. The CellTiter-Glo kit was used to detect the cytotoxicity of the compounds to HepG2.2.15 cells. According to the kit instructions, use a multifunctional microplate reader to detect the chemiluminescence intensity (RLU) of each cell well.

HBV = assay: Single agent anti-HBV activity, HBV DNA in supernatant by quantitative PCR, HepG2.2.15 cells; settings: Hepatitis B virus, 192 h, day 8
Method: (§1) Cell line: HepG2.2.15 cells are constructed and provided by WuXi AppTec. The cell culture medium is DMEM/F12 medium supplemented with 2% fetal bovine serum, 2 mM glutamine, 1×non-essential amino acids, 100 U/mL penicillin and 100 µg/mL streptomycin.
(§2) 2.1.1 On the first day, HepG2.2.15 cells were seeded into a 96-well cell culture plate at a density of 60,000 cells/well, and then the cells were cultured overnight at 5% CO2 and 37° C. On the second day, the compound 1 and the compound of formula (IIb) and the compound of formula (IIIb) were diluted and added to a 96-well plate. Each combination was a three-fold plate. The cells were cultured under 5% CO2 and 37° C. for 3 days. On the 5th day, a new culture medium containing the compound was replaced, and the supernatant was collected on the 8th day. The HBsAg in the supernatant was detected by ELISA, and the DNA in the supernatant was extracted at the same time, and the content of HBV DNA in the supernatant was detected by quantitative PCR. After collecting the cell supernatant, add CellTiter-Glo to detect cell viability.

HBsAg = assay: Single agent anti-HBV activity, HBsAg in supernatant by ELISA, HepG2.2.15 cells; settings: Hepatitis B virus, HepG2.2.15, 192 h, read-out: HBsAg EC50
Method: as §1, §2

[2] = Single agent cytotoxicity, CellTiter-Glo; settings: human, HepG2.2.15 cells
Method: as §1, §2

HepG2.2.15 cells [3] = assay: Cytotoxicity of the compounds in combination, CellTiter Glo
Method: as §1
2.2.1 On the first day, HepG2.2.15 cells were seeded into a 96-well cell culture plate at a density of 60,000 cells/well, and then the cells were cultured overnight at 5% CO2 and 37° C. On the second day, different concentrations of compounds were added to treat the cells. Compounds were diluted in gradients, 7×7 concentration combinations, and 3 replicate plates were tested in parallel. The compound concentration tested for joint activity is based on the EC50 value of each compound. The 7 concentration gradients are approximately: 2×, 1×, ½×, ¼×, ⅛×, 1/16× and 1/32×EC50. The compound concentration of the combined activity test experiment is shown in Table 8, and the combination drug arrangement is shown in Table 9. On the 5th day, replace the fresh culture medium containing the compound. On the 8th day, the culture supernatant was collected, DNA was extracted, and the content of HBV DNA was detected by quantitative PCR. At the same time, CellTiter Glo reagent was used to detect cell viability and MacSynergy software was used to analyze the combined effect of the two drugs.

## CC(C)OC(=O)OCOP(=O)(CO[C@H](C)Cn1cnc2c(N)ncnc21)OCOC(=O)OC(C)C [TDF, tenofovir disoproxil fumarate, reference compound]
HepG2.2.15 cells [1]; Compound 1 0 nM + TDF 1 nM
  average cell viability percentage: 103.1%
HepG2.2.15 cells [1]; Compound 1 0 nM + TDF 2 nM
  average cell viability percentage: 101.1%
HepG2.2.15 cells [1]; Compound 1 0 nM + TDF 4 nM
  average cell viability percentage: 103.8%
HepG2.2.15 cells [1]; Compound 1 0 nM + TDF 8 nM
  average cell viability percentage: 116.6%
HepG2.2.15 cells [1]; Compound 1 0 nM + TDF 16 nM
  average cell viability percentage: 111.4%
HepG2.2.15 cells [1]; Compound 1 0 nM + TDF 32 nM
  average cell viability percentage: 111 ± 7.3%
HepG2.2.15 cells [1]; Compound 1 0 nM + TDF 64 nM
  average cell viability percentage: 127 ± 14%

## COCCCOc1cc2c(cc1OC)-c1cc(=O)c(C(=O)O)cn1[C@H](C(C)(C)C)CO2 [Compound of formula (IIb)]
HBV
  EC50: 1.52 nM
HBsAg
  EC50: 4.9 nM
[2]
  CC50 at 6 days: > 1000 nM
HepG2.2.15 cells [3]; Compound 1 0 nM + formula (IIb) 0.09375 nM
  average cell viability percentage: 101.23%
HepG2.2.15 cells [3]; Compound 1 0 nM + formula (IIb) 0.1875 nM
  average cell viability percentage: 101.98%
HepG2.2.15 cells [3]; Compound 1 0 nM + formula (IIb) 0.375 nM
  average cell viability percentage: 102.39%
HepG2.2.15 cells [3]; Compound 1 0 nM + formula (IIb) 0.75 nM
  average cell viability percentage: 105.36%
HepG2.2.15 cells [3]; Compound 1 0 nM + formula (IIb) 1.5 nM
  average cell viability percentage: 104.15%
HepG2.2.15 cells [3]; Compound 1 0 nM + formula (IIb) 3 nM
  average cell viability percentage: 102.61%
HepG2.2.15 cells [3]; Compound 1 0 nM + formula (IIb) 6 nM
  average cell viability percentage: 111.27%

## COCCCOc1cc2c(cc1OC)-c1cc(=O)c(C(=O)O)cn1[C@H](c1cccs1)O2 [Compound of formula (IIIb)]
HBV
  EC50: 0.78 nM
HBsAg
  EC50: 0.91 nM
[2]
  CC50 at 6 days: > 50 nM
HepG2.2.15 cells [3]; Compound 1 0 nM + formula (IIIb) 0.01875 nM
  average cell viability percentage: 103.45%
HepG2.2.15 cells [3]; Compound 1 0 nM + formula (IIIb) 0.0375 nM
  average cell viability percentage: 103.81%
HepG2.2.15 cells [3]; Compound 1 0 nM + formula (IIIb) 0.075 nM
  average cell viability percentage: 105.64%
HepG2.2.15 cells [3]; Compound 1 0 nM + formula (IIIb) 0.15 nM
  average cell viability percentage: 105.68%
HepG2.2.15 cells [3]; Compound 1 0 nM + formula (IIIb) 0.3 nM
  average cell viability percentage: 103.14%
HepG2.2.15 cells [3]; Compound 1 0 nM + formula (IIIb) 0.6 nM
  average cell viability percentage: 103.50%
HepG2.2.15 cells [3]; Compound 1 0 nM + formula (IIIb) 1.2 nM
  average cell viability percentage: 112.02%
